From patent publication US20180064829A1, “FLUORESCENT BISPHOSPHONATE ANALOGS” (University of Southern California, priority 2015, published 2018)

How the values were obtained:
[1] = UV-VIS absorption and fluorescence emission spectra; assay type: physicochemical; settings: 0.1M phosphate buffer (1x PBS for 7d5); ± 1 nm error
Description: All labeled samples were dissolved in water and diluted with 0.1 M phosphate buffer or 1×PBS (for 7d5). Assuming that the labeled bisphosphonates have the same extinction coefficient (E) as the carboxylic acid of the free fluorescent label, the final concentrations for all labeled products were calculated from UV-VIS absorption spectra at λ=493 nm (ε=73000 M^−1 cm^−1 at pH 7.2) for FAM conjugates (7a1-7a3, 7b1, 7c1, 7d1-7d2, 7e1-7e2, 7f1-7f2), λ=567.5 nm (ε=114850 M^−1cm^−1 at pH 7.5) for RhR-X conjugates (7a4, 7b2, 7c2), λ=580 nm (c=72000 M^−1cm^−1 at pH 8.0) for ROX conjugates (7a5, 7b3), λ=648 nm (ε=240000 M^−1cm^−1 at pH 7.2) for AF647 conjugates (7a6, 7b4, 7d3), λ=774 nm (ε=240000 M^−1cm^−1 at pH 7.4) for 800CW conjugates (7d4), λ=644 nm (ε=271000 M^−1cm^−1 at pH 7.4, 1×PBS) for Sulfo-Cy5 conjugates (7d5).
Emission spectra for FAM and RhR-X conjugates were recorded using an excitation wavelength of 490 nm or 520 nm, respectively. Emission spectra for AF647 conjugates and Sulfo-Cy5 conjugates were recorded using an excitation wavelength of 600 nm. Emission spectra of 5(6)-ROX conjugates were recorded using an excitation wavelength of 575 nm. Emission spectra of IRDye CW800 conjugate was recorded using an excitation wavelength of 750 nm. The set-up of excitation slit, emission slit, integration time and increment were determined to get optimal spectra for each compound respectively, depending on the sample concentration and spectrometer used.

[2] = Hydroxyapatite (HAP) column chromatography binding assay; settings: pH 6.8, phosphate gradient 1 to 1000 mM; FIG. 3
Description: The fast performance liquid chromatography (FPLC) system consisted of a Waters 650E advanced protein purification system (Millipore Corp., Waters chromatography division, Milford, Mass.), a 600E system controller and a 484 tunable absorbance detector for UV absorbance assessment. Ceramic hydroxyapatite [HAP, […], Macro-Prep® Ceramic Hydroxyapatite Type II 20 μm 100 g, Bio-Rad Laboratories, Inc. Hercules, Calif.] was equilibrated with 1 mM phosphate buffer (pH 6.8) and packed in a 0.66 cm (diameter)×6.5 cm (length) glass column (Omnifit, Bio-chem Valve™ inc., Cambridge, U.K.), which was attached to the Waters 650E advanced protein purification system. Each sample was prepared in 1 mM potassium phosphate buffer, and 100 μL of 1 mM (0.1 μmol) sample was injected into the FPLC system. As a consequence, the compounds were absorbed and subsequently eluted at a flow rate of 2 ml/min by using a linear concentration gradient of phosphate from 1 to 1000 mM at pH 6.8. Fractions of each sample were collected in 80 tubes using an automated fraction collector (Gilson, France) and then used for subsequent ultraviolet (SPECTRAmax PLUS 384, Molecular Devices, CA) or fluorescence spectrometry detection (WALLAC VICTOR™, 1420 MULTILABEL COUNTER, Perkin Elmer, USA). […] The elution profile for each sample was determined in triplicate for statistical analysis (Prism, GraphPad Software, USA). […]

[3] = system: unprenylated Rap1A (uRap1A); test: Prenylation assay: Western blot for unprenylated Rap1A in J774.2 macrophages; assay type: cell-based, mouse; settings: 10 or 100 μM, 24 h, FIG. 5A-C
Description: To determine the effect of fluorescent BP probes on protein prenylation, J774.2 mouse macrophages were plated out at 2×10^5 cells/mL in 24-well plates and left to adhere overnight. Cells were then treated with 10 or 100 μM of fluorescent analogues of RIS, dRIS, and ZOL, the respective native BP, or vehicle, for 24 h. Cells were lysed in radioimmunoprecipitation buffer, and proteins were separated by sodium dodecyl sulfate polyacrylamide gel electrophoresis and transferred to polyvinyl difluoride membranes by western blotting. Membranes were then incubated with antibodies to the unprenylated form of Rap1A (uRap1A) and the housekeeping protein β-actin, which were detected by incubation with fluorescently-labeled secondary antibodies and scanning of membranes on a LI-COR Infrared Imager. Results shown are representative of 2 independent experiments. The ratio between abundance of unprenylated RaplA and β-actin is indicated for each sample below the blots in FIG. 5.

[4] = system: J774.2 macrophages; test: J774.2 cell viability assay (AlamarBlue); assay type: cell-based, mouse; settings: J774.2 macrophages, 10, 100 or 500 μM, 48 h; FIG. 5D-F
Description: To determine the effect of fluorescent BP analogues on cell viability, J774.2 mouse macrophages were plated at 2×10^5 cells/mL in 96-well plates and left to adhere overnight. Cells were then treated with 10, 100 or 500 μM of fluorescent analogues of RIS, dRIS, and ZOL, the respective native BP, or vehicle, for 48 h. At the end of the incubation period, AlamarBlue reagent was added to each well and incubation continued for a further 3 h. Fluorescence was detected on a plate reader, and expressed as percent of vehicle control. Results are shown as mean±SD of ≧2 independent experiments, performed at least in duplicate.

[5] = pH 7.0, 0.1M phosphate buffer; assumed the same as the corresponding fluorescent dye; cited from earlier work

Structure (SMILES) | Maximum absorption wavelength (λmax (abs), nm) [1] | Maximum emission wavelength (λmax (em), nm) [1] | HAP binding affinity (retention time on HAP column, normalized to RIS) [2] | accumulation of unprenylated Rap1A (anti-prenylation activity) [3] | viable cell number [4] | Extinction coefficient [5]
CC1(C)C(C=CC=CC=C2N(CCCS(=O)(=O)O)c3ccc(S(=O)(=O)O)cc3C2(C)CCCCCC(=O)NCC(O)C[n+]2cccc(CC(O)(P(=O)(O)O)P(=O)(O)O)c2)=[N+](CCCS(=O)(=O)O)c2ccc(S(=O)(=O)O)cc21 (centres unmarked) [AF647-RIS, 2-(5-(3-(6-((2-hydroxy-3-(3-(2-hydroxy-2,2-diphosphonoethyl)pyridin-1-ium-1-yl)propyl)amino)-6-oxohexyl)-3-methyl-5-sulfo-1-(3-sulfopropyl)indolin-2-ylidene)penta-1,3-dien-1-yl)-3,3-dimethyl-5-sulfo-1-(3-sulfopropyl)-3H-indol-1-ium] | 648 nm | 666 nm | largest relative decrease of HAP affinity compared to other fluorescent RIS conjugates, but still retains strong absolute binding affinity | did not show accumulation of unprenylated Rap1A | modest decreases in viable cell number at high concentrations | 240,000 (pH 7.0) M^−1cm^−1
CC1(C)C(/C=C/C2=C(Oc3ccc(S(=O)(=O)O)cc3)C(=C/C=C3/N(CCCCS(=O)(=O)[O-])c4ccc(S(=O)(=O)[O-])cc4C3(C)C)/CCC2)=[N+](CCCCCC(=O)NCC(O)C[n+]2ccn(CC(O)(P(=O)(O)O)P(=O)(O)O)c2)c2ccc(S(=O)(=O)O)cc21 (centres unmarked) [Compound 800CW-ZOL, (E)-2-((E)-2-(3-((E)-2-(1-(6-((2-hydroxy-3-(1-(2-hydroxy-2,2-diphosphonoethyl)-1H-imidazol-3-ium-3-yl)propyl)amino)-6-oxohexyl)-3,3-dimethyl-5-sulfo-3H-indol-1-ium-2-yl)vinyl)-2-(4-sulfophenoxy)cyclohex-2-en-1-ylidene)ethylidene)-3,3-dimethyl-1-(4-sulfonatobutyl)indoline-5-sulfonate] | 774 nm | 789 nm | – | did not show accumulation of unprenylated Rap1A | modest decreases in viable cell number at high concentrations | 240,000 (pH 7.0) M^−1cm^−1
